The record followed here is the NIST ThermoML archive (doi:10.1016/j.jct.2015.11.010).

Broadly, the mass density is mass per unit of volume.

± gives the expanded uncertainty stated by the source.

For series [1] the following is noted: Crystal; for mass density: 101.33 kPa, X-ray diffraction.
Series [2] can be described thus: Molar enthalpy of transition or fusion. As to conditions: Crystal; DSC.
Series [3] in a line: molar heat capacity at constant pressure. As to conditions: 101.33 kPa, Crystal, Small sample (50 mg) DSC.
A short description of series [4]: molar enthalpy of vaporization or sublimation. As to conditions: 298.15 K; Crystal; Static calorimetry.

In the case of `O.Sc1ncc[nH]1.Sc1ncc[nH]1` [2-mercaptoimidazole hemihydrate], the mass density in series [1] (150 K) came out at 1489.4 ± 7.3 kg/m3.
In the case of `Sc1ncc[nH]1` [2-mercaptoimidazole], the “Molar enthalpy of transition or fusion” value in series [2] amounted to 4.18 ± 0.115 kcal/mol. Further, the “molar heat capacity at constant pressure” value in series [3] (298.15 K) was determined as 112 ± 7.7 J/K/mol; in series [3] (303.15 K) it was 112.4 ± 7.9 J/K/mol; in series [3] (308.15 K), 112.9 ± 7.9 J/K/mol; in series [3] (313.15 K) it was 112.6 ± 8.9 J/K/mol; in series [3] (318.15 K), 113.4 ± 8.6 J/K/mol; in series [3] (323.15 K), 114.3 ± 8.6 J/K/mol. Also, the “molar heat capacity at constant pressure” value was determined as 115.3 ± 8.6 J/K/mol in series [3] (328.15 K) and 116.5 ± 8.6 J/K/mol in series [3] (333.15 K). In addition, in series [4], the molar enthalpy worked out at 27.3 ± 0.335 kcal/mol. In addition, in series [1] (296 K), the mass density came out at 1424.1 ± 7 kg/m3. The Triple point temperature in series [1] (DSC) is 503.5 ± 0.8 K.
